pIC50: −log10 of the molar value. *1 amine or outer side, *2 acyl side, *3 side chain or, on linkers, in order; H or OH if unused. Where a SMILES comes first, the peptide text is derived from it. Bridges are numbered along the chain shown (N, C = ends). [ ]: non-standard residue; d: D form. The star is where a group is joined. hPhe(3,5-F2-4-CF3) = N[C@@H](CCc1cc(F)c(C(F)(F)F)c(F)c1)C(=O)O; hPhe(3-Cl-4-CF3) = N[C@@H](CCc1ccc(C(F)(F)F)c(Cl)c1)C(=O)O; NPrPhe(4-CF3) = CCCN[C@@H](Cc1ccc(C(F)(F)F)cc1)C(=O)O; X1 = CCCCN([C@@H](Cc1ccc(C)cc1)C(=O)[*:2])[*:1]; X16 = O=C([C@@H](N[*:1])C1CC(F)(F)C1)[*:2]; NMeGly(cPent) = CN[C@H](C(=O)O)C1CCCC1; Hyp = O=C(O)[C@@H]1C[C@@H](O)CN1; NMeD = CN[C@@H](CC(=O)O)C(=O)O; NMeL = CN[C@@H](CC(C)C)C(=O)O; Ac6c = NC1(C(=O)O)CCCCC1; Morpholide = C1CN(*)CCO1; NMeA = CN[C@@H](C)C(=O)O; Ac5c = NC1(C(=O)O)CCCC1; Aze = O=C(O)[C@@H]1CCN1; Abu = CC[C@H](N)C(=O)O; Ac4c = NC1(C(=O)O)CCC1; Sar = CNCC(=O)O
What was measured:
[1] = target: GDP-bound NRAS wild-type protein (Homo sapiens, UniProt P01111); experiment: Binding to NRAS by surface plasmon resonance (SPR), KD and KD ratio to KRAS
Outline: (§1)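 Biotinylated GDP-bound RAS was captured at about 100–300 RU. Running buffer: HBS pH 7.4, 10 mM MgCl2, 10 µM GDP, 1 mM DTT, 0.01% Tween 20, 4% DMSO.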

[2] = test system: human lung cancer strain NCI-H441; type: cell-based
Outline: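 Step one: dispense the test compound in serial DMSO dilutions. Step three: add the reagent and measure […].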

[3] = target: HRAS wild-type protein (Homo sapiens, UniProt P01112); experiment: Binding to HRAS by surface plasmon resonance (SPR), KD and KD ratio to KRAS
Outline: as §1

[4] = ratio of the KD value with respect to GDP-bound NRAS wild-type protein to the KD value with respect to KRAS
[5] = ratio of the KD value with respect to HRAS wild-type protein to the KD value with respect to KRAS
[6] = ratio of KD for GDP-bound NRAS wild-type protein to KD for KRAS
[7] = ratio of KD for HRAS wild-type protein to KD for KRAS
[8] = ratio of KD value for GDP-bound NRAS wild-type protein to KD value for KRAS (SPR)
[9] = ratio of KD value for HRAS wild-type protein to KD value for KRAS (SPR)

Chain of GDP-bound NRAS wild-type protein (P01111 whole entry): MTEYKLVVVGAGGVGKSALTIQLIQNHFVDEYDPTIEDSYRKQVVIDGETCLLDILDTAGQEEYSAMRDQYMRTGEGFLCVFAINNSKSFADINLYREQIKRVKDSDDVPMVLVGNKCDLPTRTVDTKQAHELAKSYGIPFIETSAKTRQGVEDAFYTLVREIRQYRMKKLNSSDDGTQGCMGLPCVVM
Chain of HRAS wild-type protein (P01112 whole entry): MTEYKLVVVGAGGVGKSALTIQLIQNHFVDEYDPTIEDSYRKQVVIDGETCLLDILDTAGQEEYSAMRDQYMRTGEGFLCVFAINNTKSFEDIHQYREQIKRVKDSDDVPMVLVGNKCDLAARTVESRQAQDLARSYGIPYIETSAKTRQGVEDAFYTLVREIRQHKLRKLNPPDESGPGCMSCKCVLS

SMILES	pIC50 [2]	NRAS /KRAS [1, 4]	HRAS /KRAS [3, 5]	NRAS /KRAS [1, 6]	HRAS /KRAS [3, 7]	NRAS /KRAS [1, 8]	HRAS /KRAS [3, 9]
CC[C@H](C)[C@@H]1NC(=O)[C@H](CC(C)C)N(C)C(=O)C[C@@H](C(=O)N2CCOCC2)N(C)C(=O)[C@H](C2CCCC2)NC(=O)C2(CCCC2)NC(=O)[C@@H]2CCCN2C(=O)[C@H](CCc2cc(F)c(C(F)(F)F)c(F)c2)NC(=O)CN(C)C(=O)[C@H](Cc2ccc(C(F)(F)F)cc2)N2CCCC[C@@H](C2=O)N(C)C(=O)CN(C)C1=O [PP0540]	6.12	B (a compound having 3 or more and less than 10 is denoted as B)	B (a compound having 3 or more and less than 10 is denoted as B)				
CCCN1C(=O)[C@@H]2CCN2C(=O)[C@H](C)N(C)C(=O)[C@H](CC)NC(=O)[C@H](CC(C)C)N(C)C(=O)C[C@@H](C(=O)N2CCOCC2)N(C)C(=O)[C@H](C2CCCC2)N(C)C(=O)C2(CCCC2)NC(=O)[C@@H]2CCCN2C(=O)[C@H](CCc2ccc(C(F)(F)F)c(Cl)c2)NC(=O)CN(C)C(=O)[C@@H]1Cc1ccc(C(F)(F)F)cc1 [PP0269] ([NMeL][Abu][NMeA][Aze][NPrPhe(4-CF3)][Sar][hPhe(3-Cl-4-CF3)]P[Ac5c][NMeGly(cPent)][NMeD]-Morpholide; lactam N-11)	7.46			C (A compound having a KD ratio of 0.1 or more and less than 3 is denoted as C)	B (a compound having 3 or more and less than 10 is denoted as B)		
CCC[C@H]1C(=O)N[C@@H]([C@@H](C)CC)C(=O)N(C)CC(=O)N(C)[C@H]2C/C=C\CCN(C2=O)[C@@H](Cc2ccc(C(F)(F)F)cc2)C(=O)N(C)CC(=O)N[C@@H](CCc2ccc(C(F)(F)F)c(Cl)c2)C(=O)N2C[C@H](OCC)C[C@H]2C(=O)NC2(CC(C)(C)C2)C(=O)N(C)[C@@H](CC(C)(C)C)C(=O)N(C)[C@H](C(=O)N(C)C)CC(=O)N1C [PP2969]	8.57			AA (a compound having 20 or more is denoted as AA)	A (a compound having 10 or more and less than 20 is denoted as A)		
CCO[C@@H]1C[C@H]2C(=O)NC3(CC(C)(C)C3)C(=O)N(C)[C@@H](C(CC)CC)C(=O)N(C)[C@H](C(=O)N(C)C)CC(=O)N(C)[C@@H](CC3CC3)C(=O)N[C@@H]([C@@H](C)CC)C(=O)N(C)CC(=O)N(C)[C@H]3C/C=C\CCN(C3=O)[C@@H](Cc3ccc(C(F)(F)F)cc3)C(=O)N(C)CC(=O)N[C@@H](CCc3ccc(C(F)(F)F)c(OC)c3)C(=O)N2C1 [PP2155]	7.97	A (a compound having 10 or more and less than 20 is denoted as A)	B (a compound having 3 or more and less than 10 is denoted as B)				
CC[C@H](C)[C@@H]1NC(=O)[C@H](CC(C)C)N(C)C(=O)C[C@@H](C(=O)N2CCOCC2)N(C)C(=O)[C@H](C2CCCC2)N(C)C(=O)C2(CCCC2)NC(=O)[C@@H]2CCCN2C(=O)[C@H](CCc2ccc(C(F)(F)F)c(Cl)c2)NC(=O)CN(C)C(=O)[C@H](Cc2ccc(C)cc2)N2CC/C=C\C[C@@H](C2=O)N(C)C(=O)CN(C)C1=O [PP0461]	7.63	A (a compound having 10 or more and less than 20 is denoted as A)	A (a compound having 10 or more and less than 20 is denoted as A)				
CCCCN1C(=O)CN(C)C(=O)CN(C)C(=O)[C@H]([C@@H](C)CC)NC(=O)[C@H](CC(C)C)N(C)C(=O)C[C@@H](C(=O)N2CCOCC2)N(C)C(=O)[C@H](C2CCCC2)N(C)C(=O)C2(CCCC2)NC(=O)[C@@H]2CCCN2C(=O)[C@H](CCc2ccc(C(F)(F)F)c(Cl)c2)NC(=O)CN(C)C(=O)[C@@H]1Cc1ccc(C)cc1 [PP0062] ([NMeL]I[Sar][Sar][X1][Sar][hPhe(3-Cl-4-CF3)]P[Ac5c][NMeGly(cPent)][NMeD]-Morpholide; lactam N-11)	8.42			C (A compound having a KD ratio of 0.1 or more and less than 3 is denoted as C)	C (A compound having a KD ratio of 0.1 or more and less than 3 is denoted as C)		
CCCN1C(=O)[C@@H]2CCN2C(=O)[C@H](C)N(C)C(=O)[C@H]([C@@H](C)CC)NC(=O)[C@H](CC(C)C)N(C)C(=O)C[C@@H](C(=O)N2CCOCC2)N(C)C(=O)[C@H](C2CCCC2)N(C)C(=O)C2(CCC2)NC(=O)[C@@H]2C[C@@H](OCC)CN2C(=O)[C@H](CCc2ccc(C(F)(F)F)c(Cl)c2)NC(=O)CN(C)C(=O)[C@@H]1Cc1ccc(C(F)(F)F)cc1 [PP0406] ([NMeL]I[NMeA][Aze][NPrPhe(4-CF3)][Sar][hPhe(3-Cl-4-CF3)][Hyp](Et)[Ac4c][NMeGly(cPent)][NMeD]-Morpholide; lactam N-11)	8.60	C (A compound having a KD ratio of 0.1 or more and less than 3 is denoted as C)	B (a compound having 3 or more and less than 10 is denoted as B)				
CCC[C@H]1C(=O)N[C@@H](C2CCCC2)C(=O)N(C)CC(=O)N(C)[C@H]2C/C=C\CCN(C2=O)[C@@H](Cc2ccc(C)cc2)C(=O)N(C)CC(=O)N[C@@H](CCc2cc(F)c(C(F)(F)F)c(F)c2)C(=O)N2CC3(CC3)C[C@H]2C(=O)NC2(CC(C)(C)C2)C(=O)N(C)[C@@H](C2CCCC2)C(=O)N(C)[C@H](C(=O)N(C)C)CC(=O)N1C [PP2990]	8.05			A (a compound having 10 or more and less than 20 is denoted as A)	A (a compound having 10 or more and less than 20 is denoted as A)		

Further lines, with some results ahead:

pIC50 [2]	SMILES	NRAS /KRAS [1, 4]	HRAS /KRAS [3, 5]	NRAS /KRAS [1, 6]	HRAS /KRAS [3, 7]	NRAS /KRAS [1, 8]	HRAS /KRAS [3, 9]
7.70	CC[C@H](C)[C@@H]1NC(=O)[C@H](CC)N(C)C(=O)C[C@@H](C(=O)N(C)C)N(C)C(=O)[C@H](C2CCCC2)N(C)C(=O)C2(CC(C)(C)C2)NC(=O)[C@@H]2C[C@@H](C)CN2C(=O)[C@H](CCc2ccc(C(F)(F)F)c(OC)c2)NC(=O)CN(C)C(=O)[C@H](Cc2ccc(C)cc2)N2CC/C=C\C[C@@H](C2=O)N(C)C(=O)CN(C)C1=O [PP1838]					A (a compound having 10 or more and less than 20 is denoted as A)	A (a compound having 10 or more and less than 20 is denoted as A)
7.82	CCCN1C(=O)[C@@H]2CCN2C(=O)[C@H](C)N(C)C(=O)[C@H]([C@@H](C)CC)NC(=O)[C@H](CC(C)C)N(C)C(=O)C[C@@H](C(=O)N2CCOCC2)N(C)C(=O)[C@H](C2CCCC2)N(C)C(=O)C2(CCCCC2)NC(=O)[C@@H]2CCCN2C(=O)[C@H](CCc2ccc(C(F)(F)F)c(Cl)c2)NC(=O)CN(C)C(=O)[C@@H]1Cc1ccc(C(F)(F)F)cc1 [PP0226] ([NMeL]I[NMeA][Aze][NPrPhe(4-CF3)][Sar][hPhe(3-Cl-4-CF3)]P[Ac6c][NMeGly(cPent)][NMeD]-Morpholide; lactam N-11)			C (A compound having a KD ratio of 0.1 or more and less than 3 is denoted as C)	B (a compound having 3 or more and less than 10 is denoted as B)		
6.89	CCC(CC)[C@H]1C(=O)N(C)[C@H](C(=O)N(C)C)CC(=O)N(C)[C@@H](COC)C(=O)N[C@@H]([C@@H](C)CC)C(=O)N(C)CC(=O)N(C)[C@H]2C/C=C\CCN(C2=O)[C@@H](Cc2ccc(C(F)(F)F)cc2)C(=O)N(C)CC(=O)N[C@@H](CCc2cc(F)c(C(F)(F)F)c(F)c2)C(=O)N2CCOC[C@H]2C(=O)NC2(CC(C)(C)C2)C(=O)N1C [PP2917]			AA (a compound having 20 or more is denoted as AA)	A (a compound having 10 or more and less than 20 is denoted as A)		
7.42	CCCN1C(=O)[C@@H]2CCN2C(=O)CN(C)C(=O)[C@H](C2CC(F)(F)C2)NC(=O)[C@H](CC(C)C)N(C)C(=O)C[C@@H](C(=O)N2CCOCC2)N(C)C(=O)[C@H](C2CCCC2)N(C)C(=O)C2(CCCC2)NC(=O)[C@@H]2CCCN2C(=O)[C@H](CCc2cc(F)c(C(F)(F)F)c(F)c2)NC(=O)CN(C)C(=O)[C@@H]1Cc1ccc(C(F)(F)F)cc1 [PP0787] ([NMeL][X16][Sar][Aze][NPrPhe(4-CF3)][Sar][hPhe(3,5-F2-4-CF3)]P[Ac5c][NMeGly(cPent)][NMeD]-Morpholide; lactam N-11)			C (A compound having a KD ratio of 0.1 or more and less than 3 is denoted as C)	B (a compound having 3 or more and less than 10 is denoted as B)		
7.68	CCO[C@@H]1C[C@H]2C(=O)NC3(CCC3)C(=O)N(C)[C@@H](C3CCCC3)C(=O)N(C)[C@H](C(=O)N3CCCC3)CC(=O)N(C)[C@@H](CC)C(=O)N[C@@H]([C@@H](C)CC)C(=O)N(C)CC(=O)N(C)[C@H]3C/C=C\CCN(C3=O)[C@@H](Cc3ccc(C(F)(F)F)cc3)C(=O)N(C)CC(=O)N[C@@H](CCc3cc(F)c(C(F)(F)F)c(F)c3)C(=O)N2C1 [PP1090]			AA (a compound having 20 or more is denoted as AA)	A (a compound having 10 or more and less than 20 is denoted as A)		
7.80	CCO[C@@H]1C[C@H]2C(=O)NC3(CCC3)C(=O)N(C)[C@@H](C3CCCC3)C(=O)N(C)[C@H](C(=O)N(C)CC)CC(=O)N(C)[C@@H](CC)C(=O)N[C@@H]([C@@H](C)CC)C(=O)N(C)CC(=O)N(C)[C@H]3C/C=C\CCN(C3=O)[C@@H](CC3CCCCC3)C(=O)N(C)CC(=O)N[C@@H](CCc3cc(F)c(C(F)(F)F)c(F)c3)C(=O)N2C1 [PP1552]					A (a compound having 10 or more and less than 20 is denoted as A)	A (a compound having 10 or more and less than 20 is denoted as A)
